From US20230285340A1, “NEPRILYSIN INHIBITORS” (THERAVANCE BIOPHARMA R&D IP, LLC, priority 2011, published 2023)

Molecular target: human NEP (Homo sapiens (Human), UniProt P08473)
Test: In vitro enzyme inhibition assay at human NEP (Assay 1)
Type: biochemical

Row | pKi (reported as ranges) | Compound | pKi (comparative examples, exact values)
1 | ≥9 | O=C(O)C(=O)N[C@H](Cc1ccc(-c2cc(Cl)ccc2F)cc1)C[C@@H](O)C(=O)O [Example 5-5, (2R,4R)-5-(5′-Chloro-2′-fluorobiphenyl-4-yl)-2-hydroxy-4-(oxalylamino)pentanoic acid] | –
2 | ≥9 | CCOC(=O)[C@H](O)C[C@@H](Cc1ccc(-c2cccc(Cl)c2)cc1Cl)NC(=O)C(=O)O [Example 5-17, (2R,4R)-5-(3,3′-Dichlorobiphenyl-4-yl)-2-hydroxy-4-(oxalylamino)pentanoic acid ethyl ester] | –
3 | ≥9 | O=C(O)C(=O)NN(Cc1ccc(-c2cc(Cl)ccc2F)cc1Cl)C[C@@H](O)C(=O)O [Example 5-13, (R)-3-[N-(3,5′-Dichloro-2′-fluorobiphenyl-4-ylmethyl)-N′-oxalyl-hydrazino]-2-hydroxypropionic acid] | –
4 | 8.0-8.9 | C[C@@](CO)(C[C@@H](Cc1ccc(-c2ccccc2F)cc1)NC(=O)C(=O)O)C(=O)O [Example 11-1, (2S,4R)-5-(2′-Fluorobiphenyl-4-yl)-2-hydroxymethyl-2-methyl-4-(oxalylamino)pentanoic acid] | –
5 | ≥9 | CCOC(=O)C(=O)N[C@H](Cc1ccc(-c2cc(Cl)ccc2F)cc1)C[C@@H](O)C(=O)O [Example 5-14, (2R,4R)-5-(5′-Chloro-2′-fluorobiphenyl-4-yl)-4-(ethoxyoxalylamino)-2-hydroxy-pentanoic acid] | –
6 | ≥9 | Cc1ccc(Cl)cc1-c1ccc(C[C@H](C[C@@H](O)C(=O)O)NC(=O)C(=O)O)cc1 [Example 5-1, (2R,4R)-5-(5′-Chloro-2′-methylbiphenyl-4-yl)-2-hydroxy-4-(oxalylamino)-pentanoic acid] | –
7 | ≥9 | CC(C)OC(=O)C(=O)N[C@H](Cc1ccc(-c2cc(Cl)ccc2F)cc1)C[C@@H](O)C(=O)O [Example 5-15, (2R,4R)-5-(5′-Chloro-2′-fluorobiphenyl-4-yl)-2-hydroxy-4-(isopropoxyoxalyl-amino)-pentanoic acid] | –
8 | 7.0-7.9 | C[C@@](CO)(C[C@@H](Cc1ccc(-c2ccc(F)cc2)cc1)NC(=O)C(=O)O)C(=O)O [Example 11-3, (2S,4R)-5-(4′-Fluorobiphenyl-4-yl)-2-hydroxymethyl-2-methyl-4-(oxalylamino)pentanoic acid] | –
9 | ≥9 | O=C(O)C(=O)N[C@H](Cc1ccc(-c2cccc(Cl)c2)cc1Cl)C[C@@H](O)C(=O)O [Example 5-9, (2R,4R)-5-(3,3′-Dichlorobiphenyl-4-yl)-2-hydroxy-4-(oxalylamino)pentanoic acid] | –
10 | – | C[C@H](C[C@@H](Cc1ccc(-c2ccccc2)cc1)NC(=O)C(=O)O)C(=O)O [Comparative Compound A, (2R,4S)-5-Biphenyl-4-yl-2-methyl-4-(oxalyl-amino)-pentanoic Acid, reference compound] | 8.2
11 | ≥9 | C[C@@](CO)(C[C@@H](Cc1ccc(-c2cc(Cl)ccc2F)cc1)NC(=O)C(=O)O)C(=O)O [Example 11-2, (2S,4R)-5-(5′-Chloro-2′-fluorobiphenyl-4-yl)-2-hydroxymethyl-2-methyl-4-(oxalyl-amino)pentanoic acid] | –

Row | Compound | pKi (reported as ranges) | pKi (comparative examples, exact values)
12 | CC(C)COC(=O)C(=O)N[C@H](Cc1ccc(-c2cccc(Cl)c2)cc1)C[C@@](C)(CO)C(=O)O [Example 11-4, (2S,4R)-5-(3′-Chlorobiphenyl-4-yl)-2-hydroxymethyl-4-(isobutoxyoxalyl-amino)-2-methylpentanoic acid] | 8.0-8.9 | –
